ChEMBL document CHEMBL4725279, “Design and synthesis of peptide-based chimeric molecules to induce degradation of the estrogen and androgen receptors” (Bioorg Med Chem, 2020)

What was measured:
Format in all cases: cell-based
[1] = molecular target: T1, von Hippel-Lindau disease tumor suppressor/Estrogen receptor (Homo sapiens) (UniProt P03372+P40337); assay: Protac activity at VHL/ERalpha in human MCF7 cells assessed as induction of ERalpha protein degradation by measuring ERalpha protein level at 10 uM incubated for 8 hrs by western blot analysis relative to lamin B
[2] = molecular target: T2, von Hippel-Lindau disease tumor suppressor/Aryl hydrocarbon receptor (Homo sapiens, UniProt P35869+P40337); assay: Protac activity at VHL/AhR in human MCF7 cells assessed as induction of AhR protein degradation by measuring AhR protein level at 20 uM incubated for 8 hrs by western blot analysis relative to lamin B; conditions: mcf7, 8 h
[3] = molecular target: T3, von Hippel-Lindau disease tumor suppressor/Androgen receptor (Homo sapiens) (UniProt P10275+P40337); assay: Protac activity at VHL/AR in human MCF7 cells assessed as induction of AR protein degradation incubated for 8 to 24 hrs by western blot analysis; conditions: time hrs 8-24
[4] = molecular target: T1, von Hippel-Lindau disease tumor suppressor/Estrogen receptor (Homo sapiens); assay: Protac activity at VHL/ERalpha in human MCF7 cells assessed as induction of ERalpha protein degradation by measuring ERalpha protein level at 5 uM incubated for 8 hrs by western blot analysis relative to lamin B
[5] = molecular target: T1, von Hippel-Lindau disease tumor suppressor/Estrogen receptor (Homo sapiens); assay: Protac activity at VHL/ERalpha in human MCF7 cells assessed as induction of ERalpha protein degradation by measuring ERalpha protein level at 20 uM incubated for 8 hrs in presence of ubiquitin activating inhibitor MLN7243 by western blot analysis relative to lamin B
[6] = molecular target: T1, von Hippel-Lindau disease tumor suppressor/Estrogen receptor (Homo sapiens); assay: Protac activity at VHL/ERalpha in VHL siRNA-transfected human MCF7 cells assessed as induction of ERalpha protein degradation by measuring ERalpha protein level at 20 uM incubated for 8 hrs by western blot analysis relative to lamin B
[7] = molecular target: T1, von Hippel-Lindau disease tumor suppressor/Estrogen receptor (Homo sapiens); assay: Protac activity at VHL/ERalpha in human MCF7 cells assessed as induction of ERalpha protein degradation by measuring ERalpha protein level at 20 uM incubated for 8 hrs in presence of proteasome inhibitor, MG132 by western blot analysis relative to lamin B
[8] = molecular target: T1, von Hippel-Lindau disease tumor suppressor/Estrogen receptor (Homo sapiens); assay: Protac activity at VHL/ERalpha in human MCF7 cells assessed as induction of ERalpha protein degradation by measuring ERalpha protein level at 5 uM incubated for 24 hrs by western blot analysis relative to lamin B
[9] = molecular target: T2, von Hippel-Lindau disease tumor suppressor/Aryl hydrocarbon receptor; assay: Protac activity at VHL/AhR in human MCF7 cells assessed as induction of AhR protein degradation by measuring AhR protein level at 20 uM incubated for 8 hrs in presence of ubiquitin activating inhibitor MLN7243 by western blot analysis relative to lamin B; conditions: mcf7, 8 h
[10] = molecular target: T1, von Hippel-Lindau disease tumor suppressor/Estrogen receptor (Homo sapiens); assay: Protac activity at VHL/ERalpha in human MCF7 cells assessed as induction of ERalpha protein degradation by measuring ERalpha protein level at 20 uM incubated for 8 hrs by western blot analysis relative to lamin B
[11] = molecular target: T2, von Hippel-Lindau disease tumor suppressor/Aryl hydrocarbon receptor; assay: Protac activity at VHL/AhR in human MCF7 cells assessed as induction of AhR protein degradation by measuring AhR protein level at 10 uM incubated for 8 hrs by western blot analysis relative to lamin B; conditions: mcf7, 8 h
[12] = molecular target: T3, von Hippel-Lindau disease tumor suppressor/Androgen receptor (Homo sapiens); assay: Protac activity at VHL/AR in human MCF7 cells assessed as induction of AR protein degradation by measuring AR protein level at 10 uM incubated for 24 hrs by western blot analysis relative to lamin B
[13] = molecular target: T3, von Hippel-Lindau disease tumor suppressor/Androgen receptor (Homo sapiens); assay: Protac activity at VHL/AR in human MCF7 cells assessed as induction of AR protein degradation by measuring AR protein level at 5 uM incubated for 24 hrs by western blot analysis relative to lamin B
[14] = molecular target: T2, von Hippel-Lindau disease tumor suppressor/Aryl hydrocarbon receptor; assay: Protac activity at VHL/AhR in human MCF7 cells assessed as induction of AhR protein degradation by measuring AhR protein level at 5 uM incubated for 24 hrs by western blot analysis relative to lamin B; conditions: mcf7, 24 h
[15] = molecular target: T3, von Hippel-Lindau disease tumor suppressor/Androgen receptor (Homo sapiens); assay: Protac activity at VHL/AR in human MCF7 cells assessed as induction of AR protein degradation by measuring AR protein level at 10 uM incubated for 8 hrs by western blot analysis relative to lamin B
[16] = molecular target: T3, von Hippel-Lindau disease tumor suppressor/Androgen receptor (Homo sapiens); assay: Protac activity at VHL/AR in human MCF7 cells assessed as induction of AR protein degradation by measuring AR protein level at 5 uM incubated for 8 hrs by western blot analysis relative to lamin B
[17] = molecular target: T3, von Hippel-Lindau disease tumor suppressor/Androgen receptor (Homo sapiens); assay: Protac activity at VHL/AR in human MCF7 cells assessed as induction of AR protein degradation by measuring AR protein level at 20 uM incubated for 8 hrs in presence of ubiquitin activating inhibitor MLN7243 by western blot analysis relative to lamin B
[18] = molecular target: T2, von Hippel-Lindau disease tumor suppressor/Aryl hydrocarbon receptor; assay: Protac activity at VHL/AhR in human MCF7 cells assessed as induction of AhR protein degradation by measuring AhR protein level at 10 uM incubated for 24 hrs by western blot analysis relative to lamin B; conditions: mcf7, 24 h
[19] = molecular target: T2, von Hippel-Lindau disease tumor suppressor/Aryl hydrocarbon receptor; assay: Protac activity at VHL/AhR in human MCF7 cells assessed as induction of AhR protein degradation by measuring AhR protein level at 20 uM incubated for 8 hrs in presence of proteasome inhibitor, MG132 by western blot analysis relative to lamin B; conditions: mcf7, 8 h
[20] = molecular target: T1, von Hippel-Lindau disease tumor suppressor/Estrogen receptor (Homo sapiens); assay: Protac activity at VHL/ERalpha in human MCF7 cells assessed as induction of ERalpha protein degradation by measuring ERalpha protein level at 10 uM incubated for 24 hrs by western blot analysis relative to lamin B
[21] = molecular target: T3, von Hippel-Lindau disease tumor suppressor/Androgen receptor (Homo sapiens); assay: Protac activity at VHL/AR in human MCF7 cells assessed as induction of AR protein degradation by measuring AR protein level at 20 uM incubated for 8 hrs in presence of proteasome inhibitor, MG132 by western blot analysis relative to lamin B
[22] = molecular target: T3, von Hippel-Lindau disease tumor suppressor/Androgen receptor (Homo sapiens); assay: Protac activity at VHL/AR in human MCF7 cells assessed as induction of AR protein degradation by measuring AR protein level at 20 uM incubated for 8 hrs by western blot analysis relative to lamin B
[23] = molecular target: T3, von Hippel-Lindau disease tumor suppressor/Androgen receptor (Homo sapiens); assay: Protac activity at VHL/AR in human MCF7 cells assessed as induction of AR protein degradation by measuring AR protein level at 20 uM incubated for 24 hrs by western blot analysis relative to lamin B
[24] = molecular target: T1, von Hippel-Lindau disease tumor suppressor/Estrogen receptor (Homo sapiens); assay: Protac activity at VHL/ERalpha in human MCF7 cells assessed as induction of ERalpha protein degradation incubated for 8 to 24 hrs by western blot analysis; conditions: time hrs 8-24
[25] = molecular target: T3, von Hippel-Lindau disease tumor suppressor/Androgen receptor (Homo sapiens); assay: Protac activity at VHL/AR in VHL siRNA-transfected human MCF7 cells assessed as induction of AR protein degradation by measuring AR protein level at 20 uM incubated for 8 hrs by western blot analysis relative to lamin B
[26] = molecular target: T2, von Hippel-Lindau disease tumor suppressor/Aryl hydrocarbon receptor; assay: Protac activity at VHL/AhR in human MCF7 cells assessed as induction of AhR protein degradation by measuring AhR protein level at 20 uM incubated for 24 hrs by western blot analysis relative to lamin B; conditions: mcf7, 24 h
[27] = molecular target: T2, von Hippel-Lindau disease tumor suppressor/Aryl hydrocarbon receptor; assay: Protac activity at VHL/AhR in human MCF7 cells assessed as induction of AhR protein degradation by measuring AhR protein level at 5 uM incubated for 8 hrs by western blot analysis relative to lamin B; conditions: mcf7, 8 h
[28] = molecular target: T1, von Hippel-Lindau disease tumor suppressor/Estrogen receptor (Homo sapiens); assay: Protac activity at VHL/ERalpha in human MCF7 cells assessed as induction of ERalpha protein degradation by measuring ERalpha protein level at 20 uM incubated for 24 hrs by western blot analysis relative to lamin B

T3 sequence (P10275 whole entry, looked up): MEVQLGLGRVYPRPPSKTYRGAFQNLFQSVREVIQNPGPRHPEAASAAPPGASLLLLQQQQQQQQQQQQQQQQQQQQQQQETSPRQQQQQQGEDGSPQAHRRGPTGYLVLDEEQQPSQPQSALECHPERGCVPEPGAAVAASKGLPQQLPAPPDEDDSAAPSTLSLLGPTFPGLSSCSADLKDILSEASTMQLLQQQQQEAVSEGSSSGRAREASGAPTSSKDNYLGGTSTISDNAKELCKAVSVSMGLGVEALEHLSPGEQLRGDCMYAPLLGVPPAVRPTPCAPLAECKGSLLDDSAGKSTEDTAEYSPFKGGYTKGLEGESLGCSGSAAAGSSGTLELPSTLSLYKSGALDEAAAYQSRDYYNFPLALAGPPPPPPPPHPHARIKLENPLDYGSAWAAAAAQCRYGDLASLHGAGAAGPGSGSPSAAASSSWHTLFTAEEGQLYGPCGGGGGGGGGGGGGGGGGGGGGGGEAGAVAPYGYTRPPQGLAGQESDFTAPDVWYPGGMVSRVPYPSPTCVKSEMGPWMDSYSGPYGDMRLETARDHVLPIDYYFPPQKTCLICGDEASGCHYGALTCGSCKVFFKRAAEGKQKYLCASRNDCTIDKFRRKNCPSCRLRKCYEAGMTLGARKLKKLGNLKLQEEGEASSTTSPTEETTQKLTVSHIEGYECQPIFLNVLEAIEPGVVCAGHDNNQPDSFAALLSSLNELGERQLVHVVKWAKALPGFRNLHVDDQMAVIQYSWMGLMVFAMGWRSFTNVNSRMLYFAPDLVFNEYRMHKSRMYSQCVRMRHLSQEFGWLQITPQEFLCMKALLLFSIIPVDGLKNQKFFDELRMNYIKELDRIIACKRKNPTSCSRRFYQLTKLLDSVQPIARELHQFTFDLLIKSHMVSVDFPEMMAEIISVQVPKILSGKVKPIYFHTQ
T3 sequence (P40337 whole entry, looked up): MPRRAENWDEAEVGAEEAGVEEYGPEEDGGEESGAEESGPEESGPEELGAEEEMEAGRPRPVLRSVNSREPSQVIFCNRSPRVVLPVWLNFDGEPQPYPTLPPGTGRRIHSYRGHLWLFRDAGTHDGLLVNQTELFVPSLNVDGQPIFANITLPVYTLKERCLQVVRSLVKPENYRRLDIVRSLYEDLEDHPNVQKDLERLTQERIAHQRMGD
T2 sequence (P35869 whole entry): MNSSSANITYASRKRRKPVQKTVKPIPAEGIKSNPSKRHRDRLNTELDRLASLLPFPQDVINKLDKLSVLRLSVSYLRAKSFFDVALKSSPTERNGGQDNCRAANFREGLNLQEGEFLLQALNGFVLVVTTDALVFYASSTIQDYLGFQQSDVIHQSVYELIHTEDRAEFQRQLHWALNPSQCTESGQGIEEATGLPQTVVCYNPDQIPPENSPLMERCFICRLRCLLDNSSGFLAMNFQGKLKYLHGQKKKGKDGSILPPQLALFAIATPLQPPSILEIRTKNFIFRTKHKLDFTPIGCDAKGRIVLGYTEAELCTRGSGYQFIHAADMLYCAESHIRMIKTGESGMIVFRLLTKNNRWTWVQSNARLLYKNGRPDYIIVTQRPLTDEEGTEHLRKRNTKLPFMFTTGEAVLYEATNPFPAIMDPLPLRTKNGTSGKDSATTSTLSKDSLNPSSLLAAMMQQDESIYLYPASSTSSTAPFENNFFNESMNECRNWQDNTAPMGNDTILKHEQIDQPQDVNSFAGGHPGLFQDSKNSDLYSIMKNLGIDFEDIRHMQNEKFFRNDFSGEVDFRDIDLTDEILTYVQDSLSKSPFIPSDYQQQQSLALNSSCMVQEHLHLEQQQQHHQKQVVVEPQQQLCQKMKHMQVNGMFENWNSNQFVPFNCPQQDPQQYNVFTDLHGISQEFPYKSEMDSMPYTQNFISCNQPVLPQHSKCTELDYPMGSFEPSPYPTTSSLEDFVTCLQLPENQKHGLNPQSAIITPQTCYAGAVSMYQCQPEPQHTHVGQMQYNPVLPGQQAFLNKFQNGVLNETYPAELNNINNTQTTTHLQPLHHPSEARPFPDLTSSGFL
T2 sequence (P40337 whole entry): as the sequence (P40337 whole entry, looked up) above
T1 sequence (P03372 whole entry, looked up): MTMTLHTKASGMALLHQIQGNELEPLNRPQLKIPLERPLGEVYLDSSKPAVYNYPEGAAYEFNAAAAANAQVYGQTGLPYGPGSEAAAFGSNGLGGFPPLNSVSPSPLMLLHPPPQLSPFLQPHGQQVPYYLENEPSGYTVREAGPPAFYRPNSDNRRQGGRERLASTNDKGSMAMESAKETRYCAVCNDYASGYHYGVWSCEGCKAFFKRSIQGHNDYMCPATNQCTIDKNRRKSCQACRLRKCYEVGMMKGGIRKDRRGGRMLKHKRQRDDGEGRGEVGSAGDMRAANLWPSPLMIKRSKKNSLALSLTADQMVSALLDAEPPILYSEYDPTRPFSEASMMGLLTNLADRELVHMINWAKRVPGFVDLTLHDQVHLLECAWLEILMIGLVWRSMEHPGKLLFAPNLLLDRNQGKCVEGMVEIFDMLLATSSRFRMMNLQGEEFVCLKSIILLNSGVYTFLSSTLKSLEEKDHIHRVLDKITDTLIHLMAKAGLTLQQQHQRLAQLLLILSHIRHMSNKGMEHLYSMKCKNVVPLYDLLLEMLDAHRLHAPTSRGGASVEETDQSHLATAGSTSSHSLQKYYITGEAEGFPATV
T1 sequence (P40337 whole entry, looked up): as the sequence (P40337 whole entry, looked up) above

Activity [1]: 84%
Activity [2]: 105%
Activity [3]: Dose-dependent effect
Activity [4]: 93%
Activity [5]: 108%
Activity [6]: 84%
Activity [7]: 92%
Activity [8]: 86%
Activity [9]: 101%
Activity [10]: 64%
Activity [11]: 105%
Activity [12]: 103%
Activity [13]: 97%
Activity [14]: 83%
Activity [15]: 75%
Activity [16]: 92%
Activity [17]: 102%
Activity [18]: 100%
Activity [19]: 113%
Activity [20]: 76%
Activity [21]: 97%
Activity [22]: 54%
Activity [23]: 90%
Activity [24]: Dose-dependent effect
Activity [25]: 98%
Activity [26]: 97%
Activity [27]: 84%
Activity [28]: 57%
SMILES: CC[C@H](C)[C@@H]1NC(=O)[C@H](NC(=O)[C@@H](N)CCCCNC(=O)CCCCC(=O)NCCOCCOCCOCC(=O)N[C@H](C(=O)N2C[C@H](O)C[C@H]2C(=O)NCc2ccc(-c3scnc3C)cc2)C(C)(C)C)CSSC[C@@H](C(=O)N[C@@H](CCCNC(=N)N)C(=O)N[C@@H](CC(C)(C)C)C(=O)N[C@@H](CC(C)C)C(=O)N[C@@H](CCC(N)=O)C(=O)NCC(=O)NCC(=O)NCC(=O)N[C@@H](CCCNC(=N)N)C(=O)N[C@@H](CCCNC(=N)N)C(=O)N[C@@H](CCCNC(=N)N)C(=O)N[C@@H](CCCNC(=N)N)C(=O)N[C@@H](CCCNC(=N)N)C(=O)N[C@@H](CCCNC(=N)N)C(=O)N[C@@H](CCCNC(=N)N)C(N)=O)NC(=O)[C@H](CC(C)C)NC1=O
